Source: patent publication US20070074295A1 (priority 2000, published 2007)

Legend:
TNFα mRNA = test: RT-PCR for TNFα mRNA in rat prefrontal cortex; format: in vivo; conditions: acute PCP, single i.p. injection 2 mg/kg, 2 hrs and 24 hrs
Protocol: Four groups of rats were treated with (a) chronic PCP, (b) chronic vehicle (control), (c) chronic PCP plus chronic clozapine (as above) or (d) chronic PCP plus chronic haloperidol (as above). The tissue was processed for RNA extraction and RT-PCP as described above, using primers specific for TNFα mRNA.

Synapsins 1A&1B = test: Rat Atlas Array, prefrontal cortex, chronic PCP model; format: in vivo
Protocol: (§5) Rats were injected with PCP (2.58 mg/kg) or vehicle i.p. for 5 days according to the YRING PCP model. […] On the same day, the rats began a course of i.p. injections every 2.5 days with either PCP (2.58 mg/kg) or vehicle.
(§6) 21 days after minipump implantation, animals were killed by cervical dislocation and the prefrontal cortex dissected and stored at −70° C. RNA was then prepared according to the protocol below and the corresponding cDNA synthesis and hybridisation procedure were conducted using the rat Atlas Array kit according to the manufacturer's instructions (Clontech).
(§7) Results are expressed as mean relative optical densities ±SEM. Statistical significance was defined as P<0.05. N=¾ per group.
(§8) Frozen tissue already resides in the ribolyser tubes from the dissection procedure • 1) Add 1.1 ml Qiagen lysis buffer (containing β-mercaptoethanol, final volume =3%). • 2) Perform 3×20 sec homogenisations at 6.5 g in a ribolyser. • 3) Spin 3 min in microfuge. • 4) Decant to fresh tube and re-spin 3 min. • 5) Decide at this stage if you want to dilute supernatant with more lysis buffer. • 6) Add equal volume of phenol/CHCl3 pH4.7, vortex 30 sec and leave on ice for 10 min. • 7) Re-vortex and spin 4° C. 5-10 min at 1500 g. • 8) Decant supernatant and add 100 μl H2O. Add an equal volume of phenol/CHCl3 pH4.7, vortex, spin 5-10 min at 1500 g. • 9) Decant supernatant and add 100 μl H2O. […]

CIRL1 mRNA = test: Semi-quantitative RT-PCR, prefrontal cortex, chronic PCP and antipsychotic treatment; format: in vivo, rat; conditions: chronic PCP treatment
Protocol: FIG. 14 illustrates the level of CIRL1 mRNA present in the prefrontal cortex of rat brain following chronic PCP and antipsychotic treatment (n=12 for all groups apart from veh-veh where n=11). […] and […] (SEQ ID NOS: 25-26) were the primer sequences used to amplify this product.
(§1) RT-PCR for specific isoforms of CIRL was then conducted in the prefrontal cortex.
(§2) 1 ml of lysis buffer (Qiagen), including 1% β-mercaptoethanol, was added to approximately 50-100 mg of brain tissue. Tissue samples were homogenised using a ribolyser (Hybaid) with 3 bursts at 6.5 g lasting 20 seconds each. Samples were then spun at room temperature in a microfuge for 3 minutes. The supernatant was removed and re-spun for a further 3 minutes. The supernatant was decanted to a fresh tube to which an equal volume of 70% ethanol was added. The remaining RNA isolation procedure was carried out according to the manufacturer's protocol (Qiagen).
(§3) Synthesis of cDNA was carried out according to manufacturers protocols (Life Technologies). Briefly 3-5μg of total RNA was reverse transcribed using oligo dT priming. After cDNA synthesis, samples were aliquoted and stored at −70° C. […]
(§4) Alterations in expression levels were determined by semi-quantitative PCR. […] Samples were removed over 4 consecutive cycles, however, the first cycle to be removed sometimes varied depending on when logarithmic amplification was detected. […]

parvalbumin mRNA = test: Parvalbumin mRNA in situ hybridisation in chronic PCP model; format: in vivo, rat; conditions: chronic PCP treatment, alone or with clozapine or haloperidol
Protocol: In order to validate further this chronic PCP model the effect of this treatment paradigm on parvalbumin mRNA expression was investigated.
In situ hybridisation: a 45mer oligonucleotide probe was designed against bases 223-267 of the rat parvalbumin gene (GenBank accession number A819345). In situ hybridisation was carried out according to the method of Wisden and Morris (1994).

[1] = system: UNC5H1 (a netrin receptor); test: Rat Atlas Array, prefrontal cortex, chronic PCP model; format: in vivo
Protocol: as §5, §6, §7, §8

rats = test: Effect of haloperidol and clozapine on PCP induced hypofunction: LCGU; format: in vivo, rat; conditions: i.p. PCP 2.58 mgkg^−1; minipump vehicle, clozapine 20 or haloperidol 1 mgkg^−1/day; day 29
Excerpt: The effect of antipsychotics on the positive symptoms is less well studied regarding imaging studies.

CIRL2 variant AB mRNA = test: Semi-quantitative RT-PCR, prefrontal cortex, chronic PCP and antipsychotic treatment; format: in vivo, rat; conditions: chronic PCP treatment
Protocol: FIG. 15 illustrates the level of CIRL2 variant AB mRNA present in the prefrontal cortex of rat brain following chronic PCP and antipsychotic treatment (n=12 for all groups apart from veh-veh where n=11). […] and […] (SEQ ID NOS: 27-28) were the primer sequences used to amplify this product.
as §1, §2, §3, §4

CIRL3 variant AA mRNA = test: as above; format: in vivo, rat; conditions: chronic PCP treatment
Protocol: FIG. 16 illustrates the level of CIRL3 variant AA mRNA present in the prefrontal cortex of rat brain following chronic PCP and antipsychotic treatment (n=12 for all groups apart from veh-veh where n=11) […] and […] (SEQ ID NOS: 29-30) were the primer sequences used to amplify this product.
as §1, §2, §3, §4

## c1ccc(C2(N3CCCCC3)CCCCC2)cc1 [PCP, phencyclidine]
TNFα mRNA
  levels of TNFα in rat prefrontal cortex: reduced
Synapsins 1A&1B
  Synapsins 1A&1B expression (Atlas Array): 23020 ± 1412 relative optical densities
CIRL1 mRNA
  expression of CIRL1 (RT-PCR): reduced
Parvalbumin mRNA
  parvalbumin mRNA, prelimbic region of the prefrontal cortex: 0.0536±0.0023 relative optical density (ROD)
  parvalbumin mRNA, ventral reticular nucleus of the thalamus: 0.5032±0.0194 ROD
[1]
  UNC5H1 expression (Atlas Array): 3936 ± 472 relative optical densities
rats
  LCGU, Au layer I: 138 ± 3 μmol/100 g/min
  LCGU, Au layers II, III&IV: 174 ± 4 μmol/100 g/min
  LCGU, Au layers V & VI: 120 ± 2 μmol/100 g/min
  LCGU, AuD layer I: 126 ± 5 μmol/100 g/min
  LCGU, AuD layers II, III&IV: 141 ± 6 μmol/100 g/min
  LCGU, AuD layers V & VI: 105 ± 2 μmol/100 g/min
  LCGU, CA1 molecular layer: 93 ± 2 μmol/100 g/min
  LCGU, CA1 pyramidal cell layer: 63 ± 2 μmol/100 g/min
  LCGU, CA1 stratum oriens: 59 ± 2 μmol/100 g/min
  LCGU, CA1 stratum radiatum: 67 ± 2 μmol/100 g/min
  LCGU, CA3 molecular layer: 90 ± 2 μmol/100 g/min
  LCGU, CA3 pyramidal cell layer: 69 ± 2 μmol/100 g/min
  LCGU, CA3 stratum oriens: 60 ± 3 μmol/100 g/min
  LCGU, CA3 stratum radiatum: 70 ± 3 μmol/100 g/min
  LCGU, DLL: 89 ± 4 μmol/100 g/min
  LCGU, MD: 133 ± 6 μmol/100 g/min
  LCGU, PrL layer I: 109 ± 4 μmol/100 g/min
  LCGU, PrL layers II & III: 127 ± 5 μmol/100 g/min
  LCGU, PrL layers V & VI: 97 ± 3 μmol/100 g/min
  LCGU, Rt: 79 ± 2 μmol/100 g/min
  LCGU, VLL: 98 ± 6 μmol/100 g/min
  LCGU, cochlear nucleus: 92 ± 4 μmol/100 g/min
  LCGU, mO layer I: 104 ± 5 μmol/100 g/min
  LCGU, mO layers II & III: 121 ± 6 μmol/100 g/min
  LCGU, mO layers V & VI: 113 ± 6 μmol/100 g/min
CIRL2 variant AB mRNA
  expression of CIRL2 (AB) (RT-PCR): reduced
CIRL3 variant AA mRNA
  expression of CIRL3 (AA) (RT-PCR): reduced
